Literature values, collected in patent US3981916A, “Reduction of nitroparaffin substrates to their corresponding oximes using a silver salt catalyst” (priority 1970, dated 1976).

Conditions: 25°C, aqueous solution; literature values (Table I)

Question: For `NCCN` [Ethylenediamine], which “pKa (First Acid Dissociation Constant)” value is on record?
Answer: 9.98

Question: Which “pKa (First Acid Dissociation Constant)” value does the source give for `NCCNCCNCCN` [Triethylenetetramine] here?
Answer: 9.92

Question: For `CN(C)C(=N)N(C)C` [Tetramethylguanidine], which “pKa (First Acid Dissociation Constant)” value is on record?
Answer: 11.50

Same assay, conditions: water

Question: With `CN(C)CCN(C)C` [N,N,N,N',-Tetramethyl-ethylenediamine] as the compound, how does the “pKa (First Acid Dissociation Constant)” value read?
Answer: 5.85

Question: With `NCCCCCCN` [1,6-diaminohexane] as the compound, how does the “pKa (First Acid Dissociation Constant)” value read?
Answer: 11.1

Question: Which “pKa (First Acid Dissociation Constant)” value does the source give for `NCCCN` [1,3-diaminopropane] here?
Answer: 10.54

Question: Which “pKa (First Acid Dissociation Constant)” value does the source give for `NCCNCCNCCNCCN` [Tetraethylenepentamine] here?
Answer: 9.9

Question: With `CCCCN` [n-Butylamine] as the compound, how does the “pKa (First Acid Dissociation Constant)” value read?
Answer: 10.59

Question: With `OCCNCCO` [Diethanolamine] as the compound, how does the “pKa (First Acid Dissociation Constant)” value read?
Answer: 9.35

Question: Which “pKa (First Acid Dissociation Constant)” value does the source give for `CCCCCCN` [n-Hexylamine] here?
Answer: 10.40

Question: With `NCCCNCCCN` [3,3'-iminobispropylamine] as the compound, how does the “pKa (First Acid Dissociation Constant)” value read?
Answer: 10.70
